{
  "source": "patent US12697330B2",
  "about": "“Therapeutic methods using vadadustat” (Akebia Therapeutics, Inc., priority 2021, dated 2026)",
  "test_system": "erythropoietin (EPO)",
  "assay": "Phase 2 study, Main Study: pharmacodynamics, Baseline-Unadjusted serum EPO concentration",
  "format": "in vivo, human",
  "protocol": "PK/PD Endpoints. An exposure-response analysis of vadadustat and PD measures were conducted as deemed appropriate. The PK parameters included (but were not limited to) the following: area under concentration-time curve from dosing to last measurable concentration (AUClast), area under concentration-time curve from dosing to infinity (AUCinf), Cmax, apparent total body clearance (CL/F), apparent volume of distribution (Vd/F), and terminal half-life (t1/2). The PD parameters included (but were not limited to) the following: EPO, reticulocytes, iron, ferritin, TIBC, and hepcidin.\nPK population: included all randomized subjects who received study drug (vadadustat or epoetin alfa) and had enough drug concentrations to estimate AUC and Cmax. Analysis of this population was based on the dose amount taken at the date of PK sampling for the vadadustat group.\nPD parameters for serum EPO concentration are presented by epoetin alfa stratification for vadadustat treatment groups in Table 7, Table 8a and Table 8b (baseline-unadjusted) and Table 9, Table 10a and Table 10b (baseline-adjusted).",
  "key": {"[1]": {"conditions": "Vada 150 mg, Week 11, High Epoetin Alfa Stratum >90 to <300 U/kg/week"}, "[2]": {"conditions": "Vada 150 mg, Week 11, Low Epoetin Alfa Stratum ≤90 U/kg/week"}, "[3]": {"conditions": "Vada 300 mg, Week 1 + 1, High Epoetin Alfa Stratum >90 to <300 U/kg/week"}, "[4]": {"conditions": "Vada 300 mg, Week 1 + 1, Low Epoetin Alfa Stratum ≤90 U/kg/week"}, "[5]": {"conditions": "Vada 300 mg, Week 1, High Epoetin Alfa Stratum >90 to <300 U/kg/week"}, "[6]": {"conditions": "Vada 300 mg, Week 1, Low Epoetin Alfa Stratum ≤90 U/kg/week"}, "[7]": {"conditions": "Vada 300 mg, Week 11, High Epoetin Alfa Stratum >90 to <300 U/kg/week"}, "[8]": {"conditions": "Vada 300 mg, Week 11, Low Epoetin Alfa Stratum ≤90 U/kg/week"}, "[9]": {"conditions": "Vada 300 mg, Week 13, High Epoetin Alfa Stratum >90 to <300 U/kg/week"}, "[10]": {"conditions": "Vada 450 mg, Week 1 + 1, High Epoetin Alfa Stratum >90 to <300 U/kg/week"}, "[11]": {"conditions": "Vada 450 mg, Week 1 + 1, Low Epoetin Alfa Stratum ≤90 U/kg/week"}, "[12]": {"conditions": "Vada 450 mg, Week 1, High Epoetin Alfa Stratum >90 to <300 U/kg/week"}, "[13]": {"conditions": "Vada 450 mg, Week 1, Low Epoetin Alfa Stratum ≤90 U/kg/week"}, "[14]": {"conditions": "Vada 450 mg, Week 11, High Epoetin Alfa Stratum >90 to <300 U/kg/week"}, "[15]": {"conditions": "Vada 450 mg, Week 11, Low Epoetin Alfa Stratum ≤90 U/kg/week"}, "[16]": {"conditions": "Vada 450 mg, Week 13, Low Epoetin Alfa Stratum ≤90 U/kg/week"}, "[17]": {"conditions": "Vada 600 mg, Week 1 + 1, High Epoetin Alfa Stratum >90 to <300 U/kg/week"}, "[18]": {"conditions": "Vada 600 mg, Week 1, High Epoetin Alfa Stratum >90 to <300 U/kg/week"}, "[19]": {"conditions": "Vada 600 mg, Week 11, High Epoetin Alfa Stratum >90 to <300 U/kg/week"}, "[20]": {"conditions": "Vada 600 mg, Week 11, Low Epoetin Alfa Stratum ≤90 U/kg/week"}, "[21]": {"conditions": "Vada 600 mg, Week 13, High Epoetin Alfa Stratum >90 to <300 U/kg/week"}, "[22]": {"conditions": "Vada 600 mg, Week 13, Low Epoetin Alfa Stratum ≤90 U/kg/week"}, "[23]": {"conditions": "Vada 750 mg, Week 11, High Epoetin Alfa Stratum >90 to <300 U/kg/week"}},
  "data": [
    {"smiles": "O=C(O)CNC(=O)c1ncc(-c2cccc(Cl)c2)cc1O", "note": "[Compound 1, {[5-(3-chlorophenyl)-3-hydroxypyridine-2-carbonyl]amino}acetic acid]", "values": [
      {"measurement": "Baseline-Unadjusted serum EPO AUC0-5, Geometric Mean", "setting": "[1]", "result": 143.0, "unit": "µg·h/mL"},
      {"measurement": "Baseline-Unadjusted serum EPO Cmax, Geometric Mean", "setting": "[1]", "result": 39.0, "unit": "µg/mL"},
      {"measurement": "Baseline-Unadjusted serum EPO Tmax, Median", "setting": "[1]", "result": 1.63, "unit": "h"},
      {"measurement": "Baseline-Unadjusted serum EPO AUC0-5, Geometric Mean", "setting": "[2]", "result": 37.6, "unit": "µg·h/mL"},
      {"measurement": "Baseline-Unadjusted serum EPO Cmax, Geometric Mean", "setting": "[2]", "result": 10.7, "unit": "µg/mL"},
      {"measurement": "Baseline-Unadjusted serum EPO Tmax, Median", "setting": "[2]", "result": 4.78, "unit": "h"},
      {"measurement": "Baseline-Unadjusted serum EPO AUC0-5, Geometric Mean", "setting": "[3]", "result": 74.9, "unit": "µg·h/mL"},
      {"measurement": "Baseline-Unadjusted serum EPO Cmax, Geometric Mean", "setting": "[3]", "result": 20.5, "unit": "µg/mL"},
      {"measurement": "Baseline-Unadjusted serum EPO Tmax, Median", "setting": "[3]", "result": 2.02, "unit": "h"},
      {"measurement": "Baseline-Unadjusted serum EPO AUC0-5, Geometric Mean", "setting": "[4]", "result": 65.7, "unit": "µg·h/mL"},
      {"measurement": "Baseline-Unadjusted serum EPO Cmax, Geometric Mean", "setting": "[4]", "result": 19.3, "unit": "µg/mL"},
      {"measurement": "Baseline-Unadjusted serum EPO Tmax, Median", "setting": "[4]", "result": 2.75, "unit": "h"},
      {"measurement": "Baseline-Unadjusted serum EPO AUC0-5, Geometric Mean", "setting": "[5]", "result": 56.0, "unit": "µg·h/mL"},
      {"measurement": "Baseline-Unadjusted serum EPO Cmax, Geometric Mean", "setting": "[5]", "result": 17.5, "unit": "µg/mL"},
      {"measurement": "Baseline-Unadjusted serum EPO Tmax, Median", "setting": "[5]", "result": 2.00, "unit": "h"},
      {"measurement": "Baseline-Unadjusted serum EPO AUC0-5, Geometric Mean", "setting": "[6]", "result": 58.5, "unit": "µg·h/mL"},
      {"measurement": "Baseline-Unadjusted serum EPO Cmax, Geometric Mean", "setting": "[6]", "result": 17.6, "unit": "µg/mL"},
      {"measurement": "Baseline-Unadjusted serum EPO Tmax, Median", "setting": "[6]", "result": 4.50, "unit": "h"},
      {"measurement": "Baseline-Unadjusted serum EPO AUC0-5, Geometric Mean", "setting": "[7]", "result": 84.4, "unit": "µg·h/mL"},
      {"measurement": "Baseline-Unadjusted serum EPO Cmax, Geometric Mean", "setting": "[7]", "result": 23.5, "unit": "µg/mL"},
      {"measurement": "Baseline-Unadjusted serum EPO Tmax, Median", "setting": "[7]", "result": 0.97, "unit": "h"},
      {"measurement": "Baseline-Unadjusted serum EPO AUC0-5, Geometric Mean", "setting": "[8]", "result": 65.2, "unit": "µg·h/mL"},
      {"measurement": "Baseline-Unadjusted serum EPO Cmax, Geometric Mean", "setting": "[8]", "result": 20.0, "unit": "µg/mL"},
      {"measurement": "Baseline-Unadjusted serum EPO Tmax, Median", "setting": "[8]", "result": 3.29, "unit": "h"},
      {"measurement": "Baseline-Unadjusted serum EPO AUC0-5, Geometric Mean", "setting": "[9]", "result": 125, "unit": "µg·h/mL"},
      {"measurement": "Baseline-Unadjusted serum EPO Cmax, Geometric Mean", "setting": "[9]", "result": 39.2, "unit": "µg/mL"},
      {"measurement": "Baseline-Unadjusted serum EPO Tmax, Median", "setting": "[9]", "result": 0, "unit": "h"},
      {"measurement": "Baseline-Unadjusted serum EPO AUC0-5, Geometric Mean", "setting": "[10]", "result": 61.6, "unit": "µg·h/mL"},
      {"measurement": "Baseline-Unadjusted serum EPO Cmax, Geometric Mean", "setting": "[10]", "result": 18.1, "unit": "µg/mL"},
      {"measurement": "Baseline-Unadjusted serum EPO Tmax, Median", "setting": "[10]", "result": 0, "unit": "h"},
      {"measurement": "Baseline-Unadjusted serum EPO AUC0-5, Geometric Mean", "setting": "[11]", "result": 80.2, "unit": "µg·h/mL"},
      {"measurement": "Baseline-Unadjusted serum EPO Cmax, Geometric Mean", "setting": "[11]", "result": 23.9, "unit": "µg/mL"},
      {"measurement": "Baseline-Unadjusted serum EPO Tmax, Median", "setting": "[11]", "result": 4.51, "unit": "h"},
      {"measurement": "Baseline-Unadjusted serum EPO AUC0-5, Geometric Mean", "setting": "[12]", "result": 79.9, "unit": "µg·h/mL"},
      {"measurement": "Baseline-Unadjusted serum EPO Cmax, Geometric Mean", "setting": "[12]", "result": 23.4, "unit": "µg/mL"},
      {"measurement": "Baseline-Unadjusted serum EPO Tmax, Median", "setting": "[12]", "result": 4.53, "unit": "h"},
      {"measurement": "Baseline-Unadjusted serum EPO AUC0-5, Geometric Mean", "setting": "[13]", "result": 76.4, "unit": "µg·h/mL"},
      {"measurement": "Baseline-Unadjusted serum EPO Cmax, Geometric Mean", "setting": "[13]", "result": 25.5, "unit": "µg/mL"},
      {"measurement": "Baseline-Unadjusted serum EPO Tmax, Median", "setting": "[13]", "result": 4.50, "unit": "h"},
      {"measurement": "Baseline-Unadjusted serum EPO AUC0-5, Geometric Mean", "setting": "[14]", "result": 97.5, "unit": "µg·h/mL"},
      {"measurement": "Baseline-Unadjusted serum EPO Cmax, Geometric Mean", "setting": "[14]", "result": 24.9, "unit": "µg/mL"},
      {"measurement": "Baseline-Unadjusted serum EPO Tmax, Median", "setting": "[14]", "result": 0.88, "unit": "h"},
      {"measurement": "Baseline-Unadjusted serum EPO AUC0-5, Geometric Mean", "setting": "[15]", "result": 65.1, "unit": "µg·h/mL"},
      {"measurement": "Baseline-Unadjusted serum EPO Cmax, Geometric Mean", "setting": "[15]", "result": 17.7, "unit": "µg/mL"},
      {"measurement": "Baseline-Unadjusted serum EPO Tmax, Median", "setting": "[15]", "result": 2.08, "unit": "h"},
      {"measurement": "Baseline-Unadjusted serum EPO AUC0-5, Geometric Mean", "setting": "[16]", "result": 88.4, "unit": "µg·h/mL"},
      {"measurement": "Baseline-Unadjusted serum EPO Cmax, Geometric Mean", "setting": "[16]", "result": 28.8, "unit": "µg/mL"},
      {"measurement": "Baseline-Unadjusted serum EPO Tmax, Median", "setting": "[16]", "result": 3.94, "unit": "h"},
      {"measurement": "Baseline-Unadjusted serum EPO AUC0-5, Geometric Mean", "setting": "[17]", "result": 89.9, "unit": "µg·h/mL"},
      {"measurement": "Baseline-Unadjusted serum EPO Cmax, Geometric Mean", "setting": "[17]", "result": 27.2, "unit": "µg/mL"},
      {"measurement": "Baseline-Unadjusted serum EPO Tmax, Median", "setting": "[17]", "result": 2.47, "unit": "h"},
      {"measurement": "Baseline-Unadjusted serum EPO AUC0-5, Geometric Mean", "setting": "[18]", "result": 102.0, "unit": "µg·h/mL"},
      {"measurement": "Baseline-Unadjusted serum EPO Cmax, Geometric Mean", "setting": "[18]", "result": 33.2, "unit": "µg/mL"},
      {"measurement": "Baseline-Unadjusted serum EPO Tmax, Median", "setting": "[18]", "result": 0, "unit": "h"},
      {"measurement": "Baseline-Unadjusted serum EPO AUC0-5, Geometric Mean", "setting": "[19]", "result": 83.2, "unit": "µg·h/mL"},
      {"measurement": "Baseline-Unadjusted serum EPO Cmax, Geometric Mean", "setting": "[19]", "result": 23.4, "unit": "µg/mL"},
      {"measurement": "Baseline-Unadjusted serum EPO Tmax, Median", "setting": "[19]", "result": 0.92, "unit": "h"},
      {"measurement": "Baseline-Unadjusted serum EPO AUC0-5, Geometric Mean", "setting": "[20]", "result": 53.8, "unit": "µg·h/mL"},
      {"measurement": "Baseline-Unadjusted serum EPO Cmax, Geometric Mean", "setting": "[20]", "result": 18.5, "unit": "µg/mL"},
      {"measurement": "Baseline-Unadjusted serum EPO Tmax, Median", "setting": "[20]", "result": 4.50, "unit": "h"},
      {"measurement": "Baseline-Unadjusted serum EPO AUC0-5, Geometric Mean", "setting": "[21]", "result": 44.0, "unit": "µg·h/mL"},
      {"measurement": "Baseline-Unadjusted serum EPO Cmax, Geometric Mean", "setting": "[21]", "result": 49.9, "unit": "µg/mL"},
      {"measurement": "Baseline-Unadjusted serum EPO Tmax, Median", "setting": "[21]", "result": 4.63, "unit": "h"},
      {"measurement": "Baseline-Unadjusted serum EPO AUC0-5, Geometric Mean", "setting": "[22]", "result": 59.4, "unit": "µg·h/mL"},
      {"measurement": "Baseline-Unadjusted serum EPO Cmax, Geometric Mean", "setting": "[22]", "result": 20.7, "unit": "µg/mL"},
      {"measurement": "Baseline-Unadjusted serum EPO Tmax, Median", "setting": "[22]", "result": 7.08, "unit": "h"},
      {"measurement": "Baseline-Unadjusted serum EPO AUC0-5, Geometric Mean", "setting": "[23]", "result": 84.6, "unit": "µg·h/mL"},
      {"measurement": "Baseline-Unadjusted serum EPO Cmax, Geometric Mean", "setting": "[23]", "result": 21.9, "unit": "µg/mL"},
      {"measurement": "Baseline-Unadjusted serum EPO Tmax, Median", "setting": "[23]", "result": 4.06, "unit": "h"}
    ]}
  ]
}
